Assay results published in patent US20080306126A1, “Peroxisome proliferator activated receptor treatment of hyperhomocysteinemia and its complications” (priority 2004, published 2008).

Columns and labels:
Assay type in all cases: in vivo, Sprague Dawley rats
[1] = tested on: cystathionine-β-synthase (CβS); experiment: Cystathionine-β-synthase activity assayed in liver samples of treated rats; conditions: methionine diet with rosiglitazone, methionine diet alone 0.35+/−0.05
Method: (§1) Ten-week-old female Sprague Dawley rats were obtained from Harlan Laboratories (Indianapolis, Ind.). After an acclimatization period of one week, they were fed a powdered control diet with or without methionine for one week. After one week on the normal or methionine diet, an aqueous preparation rosiglitazone (3.0 mg/kg/d) or vehicle was administered by gavage. The methionine diet was prepared with 10 g of L-methionine obtained from Sigma Chemical Company in St. Louis, Miss., added to 10 kg of powdered feed and thoroughly mixed. The rats were divided into four groups (n=7/group) and fed a) control diet; b) control diet with administration of rosiglitazone; c) methionine diet; and d) methionine diet with rosiglitazone.
(§2) Before the beginning of the experiment, and at the time of sacrificing the animal a blood sample was obtained from each rat. At the end of the experiment, rats were sacrificed using a carbon dioxide chamber for harvesting tissues. Samples of blood and liver were collected and immediately processed. The serum and liver samples were stored frozen.
(§3) The Hcy levels were measured by high pressure liquid chromatography according to an established method (28,29). Cystathionine-β-synthase (CβS) was assayed in the liver samples, and the procedure followed was as previously published (26).

[2] = tested on: balloon catheter-injured carotid arteries; experiment: Balloon catheter injury of the carotid artery: development of intimal hyperplasia (I/M ratio); conditions: for I/M ratio of representative micrograph (single animal): 21 days after injury; for I/M (intimal/medial ratio), group mean: three weeks after catheter injury
Method: as §1
Balloon catheter injury of to the carotid artery was induced as previously published (27). Briefly, a 2.0 mm PTCA obtained from Boston Scientific, Inc. in Quincy, Mass. was introduced through the femoral artery to the left carotid. The balloon was inflated to 4 atmospheres for 20 seconds and then deflated to 2 atmospheres and dragged down to the aorta. The animals were continued on their respective diets and rosiglitazone treatment was continued as indicated for three weeks after the surgery. The surgical procedures were conducted under anesthesia in a totally aseptic atmosphere. All rats had free access to the feed and water, and were maintained in a 12 hour day/light cycle.
The carotid arteries were separated and flushed with zinc buffered formalin. Each artery was cut from top into 4 equal segments and placed sequentially for embedding in paraffin. Sections no thicker then 6 um were cut and stained with hemotoxalin and eosin for microscopy. All four segments were read and the intimal/medial (I/M) ratio was calculated using Image-Pro software (NIH). The mean of the I/M ratios of the 4 sections reflected the I/M for one animal.

[3] = Serum homocysteine levels by high pressure liquid chromatography
Method: as §1, §2, §3

CN(CCOc1ccc(CC2SC(=O)NC2=O)cc1)c1ccccn1 (stereo not drawn) [rosiglitazone]
CβS activity [1]: 0.57+/−0.1 μmoles/mg protein
I/M ratio of representative micrograph (single animal) ([2]; FIG. 1 micrograph C: control diet with rosiglitazone): 0.19
I/M ratio of representative micrograph (single animal) ([2]; FIG. 1 micrograph D: methionine diet with rosiglitazone): 0.17
I/M (intimal/medial ratio), group mean ([2]; control diet with rosiglitazone 3.0 mg/kg/d by gavage, control diet alone 0.18+/−0.05): 0.21+/−0.03
I/M (intimal/medial ratio), group mean ([2]; methionine diet with rosiglitazone 3.0 mg/kg/d by gavage, methionine diet alone 0.82+/−0.21): 0.28+/−0.12
I/M (intimal/medial ratio), group mean ([2]; methionine diet with rosiglitazone 3.0 mg/kg/d by gavage, methionine diet alone 0.82+/−0.21, listed as Rosiglitazone): 0.27+/−0.12
serum homocysteine level ([3]; control diet with rosiglitazone, control diet alone 6.3+/−0.04 μM): 5.1 ± 0.6 µM
homocysteine level ([3]; methionine diet with rosiglitazone treatment (background summary)): 16.4 ± 1.7 µM
serum homocysteine concentration ([3]; methionine diet with rosiglitazone, methionine diet alone 28.9+/−3.2 μM): 16.4 ± 1.7 µM
